PubChem BioAssay (NCI)
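Compound exposure: 48 hours, 5 concentrations, 96-well plates. At the GI50, growth is halved. At the TGI there is no net growth.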

What was measured:
Assay in all cases: NCI anticancer screen, dose series, 48 h
[1] = tested on: A549 NSCLC
[2] = tested on: NCI-H460 lung
[3] = tested on: HL-60(TB) leukemia
[4] = tested on: HOP-62 NSCLC
[5] = tested on: CCRF-CEM leukemia
[6] = tested on: SK-MEL-5 melanoma
[7] = tested on: MDA-MB-435
[8] = tested on: UACC-257 melanoma
[9] = tested on: M14 melanoma
[10] = tested on: HCT-116 colon
[11] = tested on: SK-MEL-2 melanoma
[12] = tested on: IGROV1 ovarian
[13] = tested on: ACHN renal
[14] = tested on: SNB-19 CNS
[15] = tested on: CAKI-1 renal
[16] = tested on: NCI-H522 lung
[17] = tested on: NCI-H226 lung
[18] = tested on: MOLT-4 leukemia
[19] = tested on: MCF7 breast
[20] = tested on: HCC-2998 colon
[21] = tested on: PC-3 prostate
[22] = tested on: 786-0 renal
[23] = tested on: SK-OV-3 ovarian
[24] = tested on: OVCAR-5 ovarian
[25] = tested on: SW-620 colon
[26] = tested on: HOP-92 NSCLC
[27] = tested on: RXF 393 renal
[28] = tested on: RPMI-8226 leukemia
[29] = tested on: OVCAR-8 ovarian
[30] = tested on: KM12 colon
[31] = tested on: MDA-MB-231 breast
[32] = tested on: A498 renal
[33] = tested on: U251 CNS
[34] = tested on: SN12C renal
[35] = tested on: COLO 205 colon
[36] = tested on: HT29 colon
[37] = tested on: SR leukemia
[38] = tested on: T-47D breast
[39] = tested on: BT-549 breast
[40] = tested on: DU-145 prostate
[41] = tested on: OVCAR-4 ovarian
[42] = tested on: SK-MEL-28 melanoma
[43] = tested on: HS 578T breast
[44] = tested on: SF-539 CNS
[45] = tested on: TK-10 renal
[46] = tested on: UACC-62 melanoma
[47] = tested on: NCI/ADR-RES ovarian
[48] = tested on: MALME-3M melanoma
[49] = tested on: SF-295 CNS
[50] = tested on: NCI-H23 lung
[51] = tested on: EKVX NSCLC
[52] = tested on: UO-31 renal
[53] = tested on: SNB-75 CNS
[54] = tested on: SF-268 CNS
[55] = tested on: LOX IMVI melanoma
[56] = tested on: K-562 leukemia
[57] = tested on: HCT-15 colon

Which GI50 [1] does the source give for O=C(NNc1nc2cc(F)ccc2n2c(CN3CCCC3)ccc12)c1cnccn1 here?
The GI50 was 1.38 µM.

What about the TGI [1] of the same compound?
Its TGI is 12.2 µM.

What about the GI50 [2] of the same compound?
The GI50 was 0.568 µM.

And the TGI [2]?
The TGI was 5.43 µM.

What about the GI50 [3] of the same compound?
Its GI50 is 1.43 µM.

What about the TGI [3] of the same compound?
Its TGI is 4.84 µM.

And the GI50 [4]?
The GI50 was 0.613 µM.

And the TGI [4]?
Its TGI is 6.3 µM.

And the GI50 [5]?
The GI50 was 0.521 µM.

What about the TGI [5] of the same compound?
Its TGI is greater than 100 µM.

And the GI50 [6]?
The GI50 was 2.81 µM.

What about the TGI [6] of the same compound?
Its TGI is 8.1 µM.

And the GI50 [7]?
The GI50 was 3.95 µM.

And the TGI [7]?
The TGI was greater than 100 µM.

What about the GI50 [8] of the same compound?
Its GI50 is 2.14 µM.

What about the TGI [8] of the same compound?
The TGI was 6.87 µM.

And the GI50 [9]?
Its GI50 is 1.61 µM.

What about the TGI [9] of the same compound?
The TGI was 12.1 µM.

And the GI50 [10]?
Its GI50 is 0.725 µM.

And the TGI [10]?
The TGI was 12.4 µM.

And the GI50 [11]?
The GI50 was 2.48 µM.

And the TGI [11]?
The TGI was 10.8 µM.

And the GI50 [12]?
The GI50 was 0.747 µM.

What about the TGI [12] of the same compound?
The TGI was 11.5 µM.

What about the GI50 [13] of the same compound?
Its GI50 is 0.899 µM.

What about the TGI [13] of the same compound?
Its TGI is greater than 100 µM.

What about the GI50 [14] of the same compound?
The GI50 was 2.39 µM.

What about the TGI [14] of the same compound?
The TGI was 24.6 µM.

And the GI50 [15]?
The GI50 was 1.61 µM.

And the TGI [15]?
Its TGI is 18.1 µM.

What about the GI50 [16] of the same compound?
Its GI50 is 2.12 µM.

And the TGI [16]?
The TGI was 5.55 µM.

And the GI50 [17]?
The GI50 was 3.33 µM.

And the TGI [17]?
Its TGI is 23.1 µM.

And the GI50 [18]?
The GI50 was 0.773 µM.

What about the TGI [18] of the same compound?
The TGI was greater than 100 µM.

And the GI50 [19]?
The GI50 was 0.932 µM.

What about the TGI [19] of the same compound?
The TGI was 8.1 µM.

What about the GI50 [20] of the same compound?
The GI50 was 3.51 µM.

And the TGI [20]?
The TGI was 27.8 µM.

And the GI50 [21]?
The GI50 was 2.17 µM.

And the TGI [21]?
Its TGI is 19.8 µM.

And the GI50 [22]?
Its GI50 is 2.07 µM.

What about the TGI [22] of the same compound?
The TGI was 11.3 µM.

And the GI50 [23]?
The GI50 was 1.67 µM.

And the TGI [23]?
The TGI was 12.8 µM.

And the GI50 [24]?
Its GI50 is 1.31 µM.

What about the TGI [24] of the same compound?
The TGI was 16.1 µM.

What about the GI50 [25] of the same compound?
Its GI50 is 1.93 µM.

What about the TGI [25] of the same compound?
Its TGI is 16.7 µM.

And the GI50 [26]?
The GI50 was 2.6 µM.

And the TGI [26]?
Its TGI is 28.9 µM.

And the GI50 [27]?
Its GI50 is 1.62 µM.

What about the TGI [27] of the same compound?
The TGI was 7.56 µM.

What about the GI50 [28] of the same compound?
The GI50 was 0.955 µM.

What about the TGI [28] of the same compound?
Its TGI is 49.2 µM.

And the GI50 [29]?
The GI50 was 1 µM.

What about the TGI [29] of the same compound?
The TGI was 10.6 µM.

And the GI50 [30]?
Its GI50 is 1.19 µM.

And the TGI [30]?
The TGI was 16.5 µM.

What about the GI50 [31] of the same compound?
Its GI50 is 2.3 µM.

What about the TGI [31] of the same compound?
Its TGI is 20.2 µM.

And the GI50 [32]?
Its GI50 is 1.31 µM.

And the TGI [32]?
The TGI was 4.99 µM.

What about the GI50 [33] of the same compound?
The GI50 was 1.19 µM.

What about the TGI [33] of the same compound?
The TGI was 14.6 µM.

And the GI50 [34]?
The GI50 was 2.16 µM.

What about the TGI [34] of the same compound?
Its TGI is greater than 100 µM.

What about the GI50 [35] of the same compound?
Its GI50 is 1.62 µM.

And the TGI [35]?
Its TGI is 15.1 µM.

What about the GI50 [36] of the same compound?
Its GI50 is 0.599 µM.

What about the TGI [36] of the same compound?
Its TGI is 14.1 µM.

And the GI50 [37]?
The GI50 was 0.416 µM.

What about the TGI [37] of the same compound?
The TGI was greater than 100 µM.

What about the GI50 [38] of the same compound?
Its GI50 is 2.39 µM.

What about the TGI [38] of the same compound?
Its TGI is 48.2 µM.

And the GI50 [39]?
Its GI50 is 3.26 µM.

What about the TGI [39] of the same compound?
Its TGI is 26 µM.

What about the GI50 [40] of the same compound?
Its GI50 is 1.49 µM.

And the TGI [40]?
The TGI was 13 µM.

What about the GI50 [41] of the same compound?
Its GI50 is 2.05 µM.

What about the TGI [41] of the same compound?
The TGI was 55.8 µM.

What about the GI50 [42] of the same compound?
The GI50 was 3.4 µM.

And the TGI [42]?
Its TGI is 21.4 µM.

What about the GI50 [43] of the same compound?
Its GI50 is 4.55 µM.

What about the TGI [43] of the same compound?
Its TGI is greater than 100 µM.

What about the GI50 [44] of the same compound?
Its GI50 is 1.49 µM.

What about the TGI [44] of the same compound?
Its TGI is 10.4 µM.

What about the GI50 [45] of the same compound?
The GI50 was 1.6 µM.

What about the TGI [45] of the same compound?
The TGI was 9.84 µM.

And the GI50 [46]?
Its GI50 is 2.62 µM.

What about the TGI [46] of the same compound?
The TGI was 8.34 µM.

What about the GI50 [47] of the same compound?
Its GI50 is 0.569 µM.

What about the TGI [47] of the same compound?
Its TGI is 6.32 µM.

What about the GI50 [48] of the same compound?
The GI50 was 2.81 µM.

And the TGI [48]?
The TGI was 54.2 µM.

What about the GI50 [49] of the same compound?
Its GI50 is 0.627 µM.

And the TGI [49]?
The TGI was 15.8 µM.

What about the GI50 [50] of the same compound?
The GI50 was 2.45 µM.

What about the TGI [50] of the same compound?
Its TGI is 18.5 µM.

And the GI50 [51]?
The GI50 was 1.01 µM.

What about the TGI [51] of the same compound?
The TGI was 16.2 µM.

What about the GI50 [52] of the same compound?
Its GI50 is 0.375 µM.

And the TGI [52]?
Its TGI is 9.57 µM.

And the GI50 [53]?
Its GI50 is 3.72 µM.

And the TGI [53]?
Its TGI is 30.9 µM.

And the GI50 [54]?
The GI50 was 1.38 µM.

And the TGI [54]?
The TGI was 33.9 µM.

What about the GI50 [55] of the same compound?
The GI50 was 0.893 µM.

And the TGI [55]?
Its TGI is 11 µM.

What about the GI50 [56] of the same compound?
The GI50 was 0.599 µM.

And the TGI [56]?
Its TGI is greater than 100 µM.

What about the GI50 [57] of the same compound?
The GI50 was 0.324 µM.

What about the TGI [57] of the same compound?
The TGI was 21.7 µM.
